Data from ChEMBL document CHEMBL1201862, “PubChem BioAssay data set” (2004).
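The compound was tested at five concentrations on cells cultured in 96-well plates, with a 48-hour exposure period. At the GI50, growth is halved.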 Calls of active or inactive are those of the source. Rule as the data show it: active = GI50 up to about 1.1 µM and inactive = higher.

Legend:
Assay in all cases: NCI tumour cell line growth inhibition, 48 h
[1] = tested on: A498
[2] = tested on: A549
[3] = tested on: CCRF-CEM
[4] = tested on: EKVX
[5] = tested on: HL-60
[6] = tested on: HT-29
[7] = tested on: K562
[8] = tested on: MOLT-4
[9] = tested on: NCI-H460
[10] = tested on: OVCAR-4
[11] = tested on: OVCAR-5
[12] = tested on: OVCAR-8
[13] = tested on: RXF 393
[14] = tested on: SF-539
[15] = tested on: SK-MEL-28
[16] = tested on: SK-OV-3
[17] = tested on: SNB-19
[18] = tested on: SNB-75
[19] = tested on: SR

SMILES | GI50 [1] | GI50 [2] | GI50 [3] | GI50 [4] | GI50 [5] | GI50 [6] | GI50 [7] | GI50 [8] | GI50 [9] | GI50 [10] | GI50 [11] | GI50 [12] | GI50 [13] | GI50 [14] | GI50 [15] | GI50 [16] | GI50 [17] | GI50 [18] | GI50 [19]
CN(CC(=O)O)S(=O)(=O)c1ccc(F)cc1 | > 100 µM (inactive) | > 100 µM (inactive) | > 100 µM (inactive) | > 100 µM (inactive) | > 100 µM (inactive) | > 100 µM (inactive) | > 100 µM (inactive) | > 100 µM (inactive) | > 100 µM (inactive) | > 100 µM (inactive) | > 100 µM (inactive) | > 100 µM (inactive) | > 100 µM (inactive) | > 100 µM (inactive) | > 100 µM (inactive) | > 100 µM (inactive) | > 100 µM (inactive) | > 100 µM (inactive) | 
O/N=C(\c1nc2ccc(Cl)cc2nc1O)C(O)c1ccc(Cl)cc1Cl (stereo not given) |  | > 100 µM (inactive) | > 100 µM (inactive) |  | > 100 µM (inactive) | > 100 µM (inactive) | > 100 µM (inactive) | > 100 µM (inactive) | > 100 µM (inactive) | > 100 µM (inactive) | > 100 µM (inactive) | > 100 µM (inactive) | > 100 µM (inactive) | > 100 µM (inactive) | > 100 µM (inactive) | > 100 µM (inactive) | > 100 µM (inactive) | > 100 µM (inactive) | > 100 µM (inactive)
C=CCCCC1(C)CCNC1=S (stereo not given) | > 100 µM (inactive) | > 100 µM (inactive) |  | > 100 µM (inactive) |  | > 100 µM (inactive) | > 100 µM (inactive) | 66.5 µM (inactive) | > 100 µM (inactive) | > 100 µM (inactive) | > 100 µM (inactive) | > 100 µM (inactive) | > 100 µM (inactive) | > 100 µM (inactive) | > 100 µM (inactive) | > 100 µM (inactive) | > 100 µM (inactive) | > 100 µM (inactive) | 
C/C(CC(=O)Nc1ccc(Cl)c(Cl)c1)=N/NC(=O)C[n+]1ccccc1 | > 100 µM (inactive) | > 100 µM (inactive) | 85.3 µM (inactive) | > 100 µM (inactive) | 44.4 µM (inactive) | > 100 µM (inactive) | 45.8 µM (inactive) | 94.2 µM (inactive) | 77.4 µM (inactive) | > 100 µM (inactive) | > 100 µM (inactive) | > 100 µM (inactive) | > 100 µM (inactive) | > 100 µM (inactive) | > 100 µM (inactive) | > 100 µM (inactive) | > 100 µM (inactive) |  | 23.7 µM (inactive)
CCCCN1C(=O)C2c3[nH]c4ccccc4c3C3CCCCC3C2C1=O.CCCCN1C(=O)C2c3[nH]c4ccccc4c3[C@@H]3CCCCC3C2C1=O (stereo not given) |  | 13.9 µM (inactive) | 16.4 µM (inactive) | 21.4 µM (inactive) | 13.6 µM (inactive) | 28.8 µM (inactive) | 14.7 µM (inactive) | 5.69 µM (inactive) | 10.5 µM (inactive) | 2.38 µM (inactive) |  | 11.8 µM (inactive) |  | 14.8 µM (inactive) | 29.6 µM (inactive) | 22.3 µM (inactive) | 23.4 µM (inactive) | 7.11 µM (inactive) | 
COc1cc(C2C(C(=O)Nc3cc(F)c(F)cc3F)=C(C)NC(C)=C2C(=O)Nc2cc(F)c(F)cc2F)ccc1O | 19.4 µM (inactive) | 24.6 µM (inactive) | 14 µM (inactive) | 14.9 µM (inactive) | 15.7 µM (inactive) | 29 µM (inactive) | 18.4 µM (inactive) | 11.3 µM (inactive) | 27.3 µM (inactive) | 17.3 µM (inactive) | 17.4 µM (inactive) | 25.4 µM (inactive) | 10.6 µM (inactive) | 26.8 µM (inactive) | 25.4 µM (inactive) |  | 29.2 µM (inactive) | 2.36 µM (inactive) | 
COc1ccc(/C=[N+](\[O-])[C@H](COCc2ccccc2)c2ccccc2)cc1 | > 100 µM (inactive) | > 10 µM (inactive) | 35.7 µM (inactive) | 30.1 µM (inactive) | 25 µM (inactive) | 52.1 µM (inactive) | 45.3 µM (inactive) | 25.2 µM (inactive) | 63.7 µM (inactive) |  | > 100 µM (inactive) | > 100 µM (inactive) | 98.9 µM (inactive) | > 100 µM (inactive) | 38 µM (inactive) | > 100 µM (inactive) | 46.7 µM (inactive) | > 100 µM (inactive) | 
COc1ccc2oc(-c3cc4cc(OC)ccc4o3)cc2c1 |  | > 100 µM (inactive) | > 100 µM (inactive) | > 100 µM (inactive) | > 100 µM (inactive) |  | > 100 µM (inactive) | > 100 µM (inactive) | > 100 µM (inactive) | > 100 µM (inactive) | > 100 µM (inactive) | > 100 µM (inactive) | > 100 µM (inactive) |  | > 100 µM (inactive) | > 100 µM (inactive) | > 100 µM (inactive) | > 100 µM (inactive) | 
CC(=O)OC1COC(N2C(=O)C(=O)c3cc(Br)c([N+](=O)[O-])cc32)C(OC(C)=O)C1OC(C)=O (stereo not given) |  | > 100 µM (inactive) | 37.6 µM (inactive) | 96.4 µM (inactive) | 31 µM (inactive) | > 100 µM (inactive) | 26.2 µM (inactive) | 35 µM (inactive) | > 100 µM (inactive) | 42.6 µM (inactive) | > 100 µM (inactive) | 83.6 µM (inactive) | 32.1 µM (inactive) | > 100 µM (inactive) | 86.5 µM (inactive) | 96.8 µM (inactive) | > 100 µM (inactive) | 22.5 µM (inactive) | 29.1 µM (inactive)
CCN(CC)c1ccc(/N=N/c2ccc([N+](=O)[O-])cc2OC(=O)/C=C/c2ccccc2)c(OC(=O)/C=C/c2ccccc2)c1 | > 26.9 µM (inactive) | 8.2 µM (inactive) | 3.02 µM (inactive) | 5.58 µM (inactive) | 2.11 µM (inactive) | > 100 µM (inactive) | > 68.9 µM (inactive) | 5.16 µM (inactive) | 0.7 µM (active) | 21 µM (inactive) |  | 6.27 µM (inactive) | 42.9 µM (inactive) | 2.89 µM (inactive) | 7.03 µM (inactive) | 4.16 µM (inactive) | > 24.2 µM (inactive) | 8.04 µM (inactive) | 4.27 µM (inactive)
O=c1cccccc1NCCCNc1cccccc1=O |  | > 100 µM (inactive) | > 100 µM (inactive) | > 100 µM (inactive) | 43.2 µM (inactive) | 88.3 µM (inactive) | > 100 µM (inactive) | > 100 µM (inactive) | 41.6 µM (inactive) |  | > 100 µM (inactive) | > 100 µM (inactive) | > 100 µM (inactive) | > 100 µM (inactive) |  | > 100 µM (inactive) | > 100 µM (inactive) |  | > 100 µM (inactive)
COc1ccc(-c2cc(=O)c3ccccc3o2)cc1N | 37.4 µM (inactive) | 49.9 µM (inactive) | 28.6 µM (inactive) | 16.4 µM (inactive) | 15.6 µM (inactive) | 32.8 µM (inactive) | 12.2 µM (inactive) | 26.3 µM (inactive) | 36 µM (inactive) | 40.9 µM (inactive) | 56 µM (inactive) | 36.1 µM (inactive) | 23.6 µM (inactive) | 33.9 µM (inactive) | 57.8 µM (inactive) | > 100 µM (inactive) | 60.4 µM (inactive) | 18.7 µM (inactive) | 
CCCC(=O)OC[n+]1ccc2c(C)c3[nH]c4ccc(OC)cc4c3c(C)c2c1 | 1.02 µM (active) | 0.306 µM (active) |  | 1.01 µM (active) | 0.259 µM (active) | 0.0931 µM (active) |  | 0.0289 µM (active) | 0.0481 µM (active) | 1.03 µM (active) | 0.675 µM (active) | 0.092 µM (active) | 1.09 µM (active) | 0.305 µM (active) | 0.74 µM (active) | 1.51 µM (inactive) |  | 1.16 µM (inactive) | 0.0486 µM (active)
CC(=O)OC(=O)O/C=C\CCl | > 100 µM (inactive) | > 100 µM (inactive) | 93.8 µM (inactive) |  | 29.4 µM (inactive) |  | > 100 µM (inactive) | 38 µM (inactive) | > 100 µM (inactive) | > 100 µM (inactive) |  | > 100 µM (inactive) | > 100 µM (inactive) | > 100 µM (inactive) | > 100 µM (inactive) | > 100 µM (inactive) | > 100 µM (inactive) | > 100 µM (inactive) | 42 µM (inactive)
Cc1ccc(NC(=O)CCc2nnc3s/c(=C\c4cccc([N+](=O)[O-])c4)c(=O)n23)cc1 | > 100 µM (inactive) | > 100 µM (inactive) | 66.1 µM (inactive) | > 100 µM (inactive) |  | > 100 µM (inactive) | > 100 µM (inactive) | > 100 µM (inactive) | > 100 µM (inactive) | > 100 µM (inactive) | > 100 µM (inactive) | > 100 µM (inactive) | > 100 µM (inactive) | 25.3 µM (inactive) | > 100 µM (inactive) | > 100 µM (inactive) | 84.5 µM (inactive) | 40.6 µM (inactive) | > 100 µM (inactive)
Cc1ccc(NC(=O)c2cccc([N+](=O)[O-])c2O)c([N+](=O)[O-])c1 | 16 µM (inactive) | 21.6 µM (inactive) | > 100 µM (inactive) | 23.2 µM (inactive) | 25.9 µM (inactive) | 12.1 µM (inactive) | 18.8 µM (inactive) | > 10 µM (inactive) | 5.58 µM (inactive) | 13.5 µM (inactive) | 20.2 µM (inactive) | 12.5 µM (inactive) | 11.3 µM (inactive) | 14.7 µM (inactive) | 16.7 µM (inactive) | 26.9 µM (inactive) | 22.4 µM (inactive) | 13.7 µM (inactive) | 
